Laboratory results reported in patent US20050101593A1, “Phosphoric acid salt of an integrin receptor antagonist” (priority 2000, published 2005).
Counter-ions that a name gives are not always drawn.

Columns and labels:
[1] = hygroscopicity; format: physicochemical; conditions: compared with the amorphous zwitterion of formula (IV)
Description: (§1) The enhanced stability and non-hygroscopic nature of the crystalline salt constitute advantageous properties in the preparation of solid pharmaceutical dosage forms containing the pharmacologically active ingredient.

[2] = chemical stability to heat and light; format: physicochemical; conditions: compared with the amorphous parent zwitterionic compound of formula (IV)
Description: as §1

[3] = solubility in water and buffered solutions; format: physicochemical; conditions: water and buffered solutions between pH 2 and 8

Compound	melting point [°C]	hygroscopicity [1]	chemical stability to heat and light [2]	solubility [3] [mg/mL]
COc1ncc(C(CC(=O)O)CC(=O)CCCCc2ccc3c(n2)NCCCC3)cn1.O=P(O)(O)O (single isomer, unassigned) [1-17a, 3(S or R)-(2-Methoxy-pyrimidin-5-yl)-5-oxo-9-(6,7,8,9-tetrahydro-5H-pyrido[2,3-b]azepin-2-yl)-nonanoic Acid Phosphoric Acid Salt]	127			
COc1ncc(C(CC(=O)O)CC(=O)CCCCc2ccc3c(n2)NCCCC3)cn1 (stereo not shown) [salt of formula I, phosphoric acid salt of 3-(2-methoxy-pyrimidin-5-yl)-5-oxo-9-(6,7,8,9-tetrahydro-5H-pyrido[2,3-b]azepin-2-yl)-nonanoic acid]		significantly less hygroscopic	greater chemical stability to heat and light	> 12
